Experimental data: patent publication US8598216B1 (Abbvie Inc., priority 2010, dated 2013)

How the values were obtained:
in vivo = details: dog
Description: A series of studies evaluated the effect of the bis-hydrochloride and bis-tosylate form on the ritonavir plasma concentrations following single 100 mg base doses in dogs. Each of the salts was evaluated in a single group of six dogs. The free base and the two salts were weighed into gelatin capsules at a dose of 100 mg base for dosing in the dogs. The dogs were fasted overnight prior to dosing, but were permitted free access to water. Approximately 30 minutes prior to dosing, the dogs received a 100 ug/kg subcutaneous dose of histamine. Plasma concentrations of parent drug were determined by HPLC-MS/MS. The following formulations/salts were evaluated: amorphous ritonavir bis-hydrochloride, amorphous ritonavir free base, and ritonavir bis-tosylate.

[1] = Intrinsic dissolution rate (IDR), compressed disc, USP II; assay type: physicochemical; details: 200 mL pH 6.8 phosphate buffer, paddle 100 rpm; FIG. 10
Description: Drug dissolution was measured using in USP II (Dissolution medium: 200 mL pH 6.8 phosphate buffer; Paddle speed: 100 rpm).

[2] = Dynamic moisture sorption (hygroscopicity); assay type: physicochemical; details: 90% RH, 25° C.; FIG. 7
Description: Hygroscopicity was evaluated on a dynamic moisture sorption balance (IGAsorp, Hiden Isochema, Warrington, UK) equipped with a data analyzer (IGAsorp, version 6.0.0.23, Hiden Isochema, Warrington UK). The balance was calibrated using standardized weights of 20, 50, and 100 mg. The RH probe was calibrated using standardized salt solutions of Lithium Chloride, Potassium Carbonate, and Sodium Chloride. During the experiment, the flow rate of nitrogen gas at different relative humidity was 250 mL/min. For anhydrous materials, the sample was first dried with dry nitrogen at 50° C. for two hours. The temperature was then set to 25° C. and the relative humidity was changed from 0% to 90% and back to 0% at 10% interval. For hydrated samples, the temperature was set to 25° C. and the relative humidity was changed at 10% interval from 30% to 90%, back to 10%, and then to 90%.

| AUC (in vivo; po, 100 mg, range) | AUC, range (in vivo; po, 100 mg) | peak concentration (Cmax), range (in vivo; po, 100 mg) | Cmax (in vivo; po, 100 mg, peak concentration (Cmax), range) | moisture picked up [2] | Compound | intrinsic dissolution rate compared with ritonavir free base [1] | bioavailability compared with free base (in vivo) |
| --- | --- | --- | --- | --- | --- | --- | --- |
| < 22 ng·h/mL | – | – | – | – | CC(C)c1nc(CN(C)C(=O)N[C@H](C(=O)N[C@@H](Cc2ccccc2)C[C@H](O)[C@H](Cc2ccccc2)NC(=O)OCc2cncs2)C(C)C)cs1 [ritonavir free base, (2S,3S,5S)-5-(N-(N-((N-methyl-N-((2-isopropyl-4-thiazolyl)-methyl)amino)carbonyl)-L-valinyl)amino)-2-(N-((5-thiazolyl)-methoxy-carbonyl)-amino)-1,6-diphenyl-3-hydroxyhexane, reference compound] | – | – |
| – | 70 to 6420 ng·h/mL | 10 to 1620 ng/mL | – | – | ritonavir bis-tosylate [reference compound] | – | – |
| 3160 to 20200 ng·h/mL | – | – | 1160 to 8390 ng/mL | about 20 % (w/w) | CC(C)c1nc(CN(C)C(=O)N[C@H](C(=O)N[C@@H](Cc2ccccc2)C[C@H](O)[C@H](Cc2ccccc2)NC(=O)OCc2cncs2)C(C)C)cs1.Cl.Cl [ritonavir bis-hydrochloride] | significantly faster dissolution rate than the ritonavir free base | greater bioavailability than the free base of ritonavir |
